Test results from patent publication US6906093B2, “Indolinone combinatorial libraries and related products and methods for the treatment of disease” (Sugen, Inc., priority 1995, dated 2005).

Tests used:
EpH4-VEGF = test: FLK-1/Xenograft Model, subcutaneous tumor growth; type: in vivo, mice
Method: Assay 2: FLK-1/Xenograft Model.
The ability of the compounds of the present invention to inhibit ovarian, melanoma, prostate, lung and mammary tumor cell lines established as SC xenografts was examined. These studies were conducted using doses ranging from 1 to 75 mg/kg/day.
Materials And Methods. The tumor cells were implanted subcutaneously into the indicated strains of mice. Treatment was initiated on day 1 post implantation unless otherwise indicated (e.g. treatment of the SCID mouse related to the A375 melanoma cell line began on Day 9). Eight (8) to sixteen (16) mice comprised each test group.
Animals. Female athymic mice (BALB/c, nu/nu), BALB/c mice, Wistar rats and Fisher 344 rats were obtained from Simonsen Laboratories (Gilroy, Calif.). Female A/I mice were obtained from Jackson Laboratory (Bar Harbor, Me.). DA rats were obtained from B&K Universal, Inc. (Fremont, Calif.). Athymic R/Nu rats, DBA/2N mice, and BALB/c mice were obtained from Harlan Sprague Dawley (Indianapolis, Ind.). Female C57BL/6 mice were obtained from Taconic (Germantown, N.Y.). […]
Subcutaneous Xenograft Model. […] Tumor growth was measured over 3 to 6 weeks using venier calipers tumor volumes were calculated as a product of length×width×height unless otherwise indicated. P values were calculated using the Students' t-test. […]

HUV-EC-C cells [1] = test: HUV-EC-C assay, a-FGF (ECGF)-induced [3H]thymidine incorporation; type: cell-based, human; settings: a-FGF-stimulated HUV-EC cells; read-out: Mitogenesis in Endothelial Cells, [3H] Thymidine Incorporation, HUV-EC Assay, a-FGF
Method: (§1) Repeat the wash two more times with D-PBS, resuspend the cells in about 1 ml assay medium/15 cm^2 of tissue culture flask.
(§2) Add cells to 96-well flat-bottom plates at 100 μl/well or 0.8-1.0×10^4 cells/well; incubate ˜24 h at 37° C., 5% CO2.
(§3) Use the same assay medium as mentioned in day 0, step 2 above. Titrations are made by adding 90 μl/well of drug at 200 μM (4× the final well concentration) to the top well of a particular plate column. Since the stock drug concentration-is usually 20 mM in DMSO, the 200 μM drug concentration contains 2% DMSO.
(§4) Therefore, diluent made up to 2% DMSO in assay medium (F12K+0.5% fetal bovine serum) is used as diluent for the drug titrations in order to dilute the drug but keep the DMSO concentration constant. Add this diluent to the remaining wells in the column at 60 μl/well. Take 60 μl from the 120 μl of 200 μM drug dilution in the top well of the column and mix with the 60 μl in the second well of the column. Take 60 μl from this well and mix with the 60 μl in the third well of the column, and so on until two-fold titrations-are completed. When the next-to-the-last well is mixed, take 60 μl of the 120 μl in this well and discard it. Leave the last well with 60 μl of DMSO/media diluent as a non-drug-containing control. […] 9 columns of titrated drug, enough for triplicate wells each for 1) VEGF (obtained from Pepro Tech Inc., catalogue no. 100-200, 2) endothelial cell growth factor (ECGF) (also known as acidic fibroblast growth factor, or aFGF) (obtained from Boehringer Mannheim Biochemica, catalogue no. […] ECGF comes as a preparation with sodium heparin.
(§5) Transfer 50 μl/well of the drug dilutions to the 96-well assay plates containing the 0.8-1.0×10^4 cells/100 μl/well of the HUV-EC-C cells from day 0 and incubate ˜2 h at 37° C., 5% CO2.
(§6) In triplicate, add 50 μl/well of 80 μg/ml VEGF, 20 ng/ml ECGF, or media control to each drug condition. As with the drugs, the growth factor concentrations are 4× the desired final concentration. Use the assay media from day 0 step 2 to make the concentrations of growth factors.
Freeze plates overnight at −20° C.

HER2 Kinase = target: T1, HER2 Kinase (Homo sapiens, UniProt P04626); test: HER-2 ELISA (whole-cell HER2 kinase activity); type: cell-based; settings: whole cells
T1 construct: fused on or other part: Candidate partner: EGFR extracellular domain (P00533) in place of HER2's own ectodomain if Assay 1 was used; none if Assay 2 (BT-474) was used
Method: Assay 1: EGF Receptor-HER2 Chimeric Receptor Assay In Whole Cells. HER2 kinase activity in is whole EGFR-NIH3T3 cells was measured as described below:
Materials and Reagents. The following materials and reagents were used to conduct the assay: • a. […] Anti-phosphotyrosine antibody (anti-Ptyr) (polyclonal) (see, Fendley, et al., supra). • d. Detection antibody: Goat anti-rabbit lgG horse radish peroxidase conjugate, TAGO, Inc., Burlingame, Calif. • e. TBST buffer:
Stock reagents of: • EDTA 100 mM pH 7.0 • Na3VO4 0.5 M • Na4(P2O7) 0.2 M
(§7) Procedure. The following protocol was used:
Coated plates are good for up to 10 days when stored at 4° C.
On day of use, remove coating buffer and replace with 100 μl blocking buffer (5% Carnation Instant Non-Fat Dry Milk in PBS). Incubate the plate, shaking, at room temperature (about 23° C. to 25° C.) for 30 minutes. Just prior to use, remove blocking buffer and wash plate 4 times with TBST buffer.
An NIH3T3 cell line overexpressing a chimeric receptor containing the EGFR extracellular domain and extracellular HER2 kinase domain can be used for this assay.
Choose dishes having 80-90% confluence for the experiment. Trypsinize cells and stop reaction by adding 10% fetal bovine serum. Suspend cells in DMEM medium (10% CS DMEM medium) and centrifuge once at 1500 rpm, at room temperature for 5 minutes.
Resuspend cells in seeding medium (DMEM, 0.5% bovine serum), and count the cells using trypan blue. Viability above 90% is acceptable. Seed cells in DMEM medium (0.5% bovine serum) at a density of 10,000 cells per well, 100 μl per well, in a 96 well microtiter plate. Incubate seeded cells in 5% CO2 at 37° C. for about 40 hours.
Check seeded cells for contamination using an inverted microscope. Dilute drug stock (10 mg/ml in DMSO) 1:10 in DMEM medium, then transfer 5 l to a TBST well for a final drug dilution of 1:200 and a final DMSO concentration of 1%. Control wells receive DMSO alone. Incubate in 5% CO2 at 37° C. for two hours.
Prepare EGF ligand: dilute stock EGF in DMEM so that upon transfer of 10 μl dilute EGF (1:12 dilution), 100 nM final concentration is attained.
Prepare fresh HNTG* sufficient for 100 μl per well; and place on ice.
After 120 minutes incubation with drug, add prepared SGF ligand to cells, 10 μl per well, to a final concentration of 100 nM. Control wells receive DMEM alone. Incubate, shaking, at room temperature, for 5 minutes.
Remove drug, EGF, and DMEM. Wash cells twice with PBS. Transfer HNTG* to cells, 100 μl per well. Place on ice for 5 minutes. Meanwhile, remove blocking buffer from other ELISA plate and wash with TBST as described above. […]
The maximal phosphotyrosine signal is determined by subtracting the value of the negative controls from the positive controls.

FLK-1 receptor = target: T2, FLK-1 receptor (Mus musculus, UniProt P35918); test: FLK-1 ELISA in FLK-1/NIH3T3 cells; type: cell-based; settings: ELISA, FLK-1/NIH3T3 cells, VEGF stimulated
T2 construct: expressed in transfected cells; host or cells: NIH3T3 C7 #3

EGF Receptor = target: T3, EGF Receptor (Homo sapiens, UniProt P00533); test: EGF Receptor ELISA (EGFR-NIH3T3 assay); type: cell-based; settings: EGFR-NIH3T3 whole cells
T3 construct: expressed in transfected cells; host or cells: NIH 3T3/C7 (3T3/EGFRc7)
Method: EGF Receptor kinase activity (EGFR-NIH3T3 assay) in whole cells was measured as described below:
Materials and Reagents. The following materials and reagents were used • a. […] Anti-phosphotyosine antibody (anti-Ptyr) (polyclonal). • d. Detection antibody: Goat anti-rabbit lgG horse radish peroxidase conjugate, TAGO, Inc., Burlingame, Calif. • e. TBST buffer:
• Keep solution in dark at 4° C. until used. • h. Stock reagents of: • EDTA 100 mM pH 7.0 • Na3VO4 0.5 M • Na4(P2O7) 0.2 M
as §7
1. […] Coated plates are good for up to 10 days when stored at 4° C.
2. On day of use, remove coating buffer and replace with blocking buffer (5% Carnation Instant NonFat Dry Milk in PBS). Incubate the plate, shaking, at room temperature (about 23° C. to 25° C.) for 30 minutes. Just prior to use, remove blocking buffer and wash plate 4 times with TBST buffer.
2. Choose dishes having 80-90% confluence for the experiment. Trypsinize cells and stop reaction by adding. 10% CS DMEM medium. Suspend cells in DMEM medium (10% CS DMEM medium) and centrifuge once at 1000 rpm, and once at room temperature for 5 minutes.
3. Resuspend cells in seeding medium (DMEM, 0.5% bovine serum), and count the cells using trypan blue. Viability above 90% is acceptable. Seed cells in DMEM medium (0.5% bovine serum) at a density of 10,000 cells per well, 100 μl per well, in a 96 well microtiter plate. Incubate seeded cells in 5% CO2 at 37° C. for about 40 hours.
1. Check seeded cells for contamination using an inverted microscope. Dilute drug stock (10 mg/ml in DMSO) 1:10 in DMEM medium, then transfer 5 μl to a test well for a final drug dilution of 1:200 and a final DMSO concentration of 1%. Control wells receive DMSO alone. Incubate in 5% CO2 at 37° C. for one hour.
5. […] Control wells receive. DMEM alone. […]
The maximal phosphotyrosine signal is determined by subtracting the value of the negative controls from the positive controls. The percent inhibition of phosphotyrosine content for extract-containing wells is then calculated, after subtraction of the negative controls.

HUV-EC-C cells [2] = test: HUV-EC-C assay, VEGF-induced [3H]thymidine incorporation; type: cell-based, human; settings: VEGF-stimulated HUV-EC cells; read-out: Mitogenesis in Endothelial Cells, [3H] Thymidine Incorporation, HUV-EC Assay, VEGF
Method: as §1, §2, §3, §4, §5, §6
Freeze plates overnight at −20° C.

[3] = tested on: 3T3/PDGFR + PDGF (T) cells; test: 3T3/PDGF-βR/PDGF-BB(T) Cell Growth SRB Assay; type: cell-based; settings: NIH 3T3 cells expressing PDGF-βR and PDGF-ββ, tumor-derived; read-out: Cell Growth Assay, SRB Readout, 3T3/PDGFR + PDGF (T) IC50
Method: Assay 3: 3T3/PDGF-βR/PDGF-BB(T) Cell Growth SRB Assay
This part of assay is carried out in a laminar flow hood.
Trypsinize cells as usual. Transfer 200 μl of cell suspension to 10 ml of isotone. Count cells on the Coulter Counter.
Dilute cells in growth medium to 60,000 cells/ml. Transfer 100 μl of cells to each well in a 96-well flat bottom plate to give 6000 cells/well.
Gently shake plates to allow for uniform attachment of the cells to the plate.
Incubate the plates at 37° C. in a 10% CO2 incubator.
Day 1: Addition of Compound: same as for Assay 1.
Day 5: Development of Assay: same as for Assay 1.

PDGFR = test: PDGF-R ELISA (receptor phosphotyrosine in whole cells); type: cell-based; settings: U1242 cells
Method: All cell culture media, glutamine, and fetal bovine serum were purchased from Gibco Life Technologies (Grand Island, N.Y.) unless otherwise specified. […] All cell lines were routinely subcultured twice a week and were negative for mycoplasma as determined by the Mycotect method (Gibco).
For ELISA assays, cells (U1242, obtained from Joseph Schlessinger, NYU) were grown to 80-90% confluency in growth medium (MEM with 10% FBS, NEAA, 1 mM NaPyr and 2 mM GLN) and seeded in 96-well tissue culture plates in 0.5% serum at 25,000 to 30,000 cells per well. After overnight incubation in 0.5% serum-containing medium, cells were changed to serum-free medium and treated with test compound for 2 hr in a 5% CO2, 37° C. incubator. […] Lysates were incubated with shaking for 1 hour at room temperature. The plates were washed with TBST four times and then incubated with polyclonal anti-phosphotyrosine antibody at room temperature for 30 minutes. Excess anti-phosphotyrosine antibody was removed by rinsing the plate with TBST four times. Goat anti-rabbit IgG antibody was added to the ELISA plate for 30 min at room temperature followed by rinsing with TBST four more times. […] Absorbance at 410 nm with a reference wavelength of 630 nm was recorded about 15 to 30 min after ABTS addition.

T3 sequence (P00533 25-1210): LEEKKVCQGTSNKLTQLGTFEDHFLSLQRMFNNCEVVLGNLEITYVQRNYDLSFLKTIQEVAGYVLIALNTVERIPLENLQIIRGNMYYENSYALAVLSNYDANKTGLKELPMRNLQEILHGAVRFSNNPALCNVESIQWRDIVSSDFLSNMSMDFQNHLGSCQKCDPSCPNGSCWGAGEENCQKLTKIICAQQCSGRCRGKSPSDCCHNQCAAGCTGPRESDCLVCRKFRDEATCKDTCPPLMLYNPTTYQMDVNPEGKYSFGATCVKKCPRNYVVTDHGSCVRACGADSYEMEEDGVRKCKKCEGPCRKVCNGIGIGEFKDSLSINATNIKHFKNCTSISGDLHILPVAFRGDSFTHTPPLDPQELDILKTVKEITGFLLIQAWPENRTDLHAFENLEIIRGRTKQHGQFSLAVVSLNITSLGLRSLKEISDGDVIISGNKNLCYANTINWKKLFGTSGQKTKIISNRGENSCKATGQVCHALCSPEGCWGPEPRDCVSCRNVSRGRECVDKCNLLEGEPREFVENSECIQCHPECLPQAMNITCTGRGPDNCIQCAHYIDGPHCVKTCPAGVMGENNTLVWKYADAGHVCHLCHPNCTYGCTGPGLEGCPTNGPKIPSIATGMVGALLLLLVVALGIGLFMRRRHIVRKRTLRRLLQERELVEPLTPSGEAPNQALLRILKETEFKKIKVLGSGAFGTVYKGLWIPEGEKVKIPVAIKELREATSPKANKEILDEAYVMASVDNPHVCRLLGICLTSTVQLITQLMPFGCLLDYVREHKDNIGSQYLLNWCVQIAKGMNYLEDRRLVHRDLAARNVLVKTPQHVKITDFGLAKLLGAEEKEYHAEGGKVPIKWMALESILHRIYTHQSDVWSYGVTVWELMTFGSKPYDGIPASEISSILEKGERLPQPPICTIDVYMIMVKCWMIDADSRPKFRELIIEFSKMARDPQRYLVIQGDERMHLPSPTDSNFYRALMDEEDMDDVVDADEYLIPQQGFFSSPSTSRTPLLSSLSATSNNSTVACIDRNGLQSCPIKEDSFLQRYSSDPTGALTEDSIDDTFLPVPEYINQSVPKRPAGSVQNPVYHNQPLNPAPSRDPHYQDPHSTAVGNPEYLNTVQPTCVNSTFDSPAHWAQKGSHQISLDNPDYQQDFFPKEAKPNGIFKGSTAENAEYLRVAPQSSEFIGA
T2 sequence (P35918 20-1345): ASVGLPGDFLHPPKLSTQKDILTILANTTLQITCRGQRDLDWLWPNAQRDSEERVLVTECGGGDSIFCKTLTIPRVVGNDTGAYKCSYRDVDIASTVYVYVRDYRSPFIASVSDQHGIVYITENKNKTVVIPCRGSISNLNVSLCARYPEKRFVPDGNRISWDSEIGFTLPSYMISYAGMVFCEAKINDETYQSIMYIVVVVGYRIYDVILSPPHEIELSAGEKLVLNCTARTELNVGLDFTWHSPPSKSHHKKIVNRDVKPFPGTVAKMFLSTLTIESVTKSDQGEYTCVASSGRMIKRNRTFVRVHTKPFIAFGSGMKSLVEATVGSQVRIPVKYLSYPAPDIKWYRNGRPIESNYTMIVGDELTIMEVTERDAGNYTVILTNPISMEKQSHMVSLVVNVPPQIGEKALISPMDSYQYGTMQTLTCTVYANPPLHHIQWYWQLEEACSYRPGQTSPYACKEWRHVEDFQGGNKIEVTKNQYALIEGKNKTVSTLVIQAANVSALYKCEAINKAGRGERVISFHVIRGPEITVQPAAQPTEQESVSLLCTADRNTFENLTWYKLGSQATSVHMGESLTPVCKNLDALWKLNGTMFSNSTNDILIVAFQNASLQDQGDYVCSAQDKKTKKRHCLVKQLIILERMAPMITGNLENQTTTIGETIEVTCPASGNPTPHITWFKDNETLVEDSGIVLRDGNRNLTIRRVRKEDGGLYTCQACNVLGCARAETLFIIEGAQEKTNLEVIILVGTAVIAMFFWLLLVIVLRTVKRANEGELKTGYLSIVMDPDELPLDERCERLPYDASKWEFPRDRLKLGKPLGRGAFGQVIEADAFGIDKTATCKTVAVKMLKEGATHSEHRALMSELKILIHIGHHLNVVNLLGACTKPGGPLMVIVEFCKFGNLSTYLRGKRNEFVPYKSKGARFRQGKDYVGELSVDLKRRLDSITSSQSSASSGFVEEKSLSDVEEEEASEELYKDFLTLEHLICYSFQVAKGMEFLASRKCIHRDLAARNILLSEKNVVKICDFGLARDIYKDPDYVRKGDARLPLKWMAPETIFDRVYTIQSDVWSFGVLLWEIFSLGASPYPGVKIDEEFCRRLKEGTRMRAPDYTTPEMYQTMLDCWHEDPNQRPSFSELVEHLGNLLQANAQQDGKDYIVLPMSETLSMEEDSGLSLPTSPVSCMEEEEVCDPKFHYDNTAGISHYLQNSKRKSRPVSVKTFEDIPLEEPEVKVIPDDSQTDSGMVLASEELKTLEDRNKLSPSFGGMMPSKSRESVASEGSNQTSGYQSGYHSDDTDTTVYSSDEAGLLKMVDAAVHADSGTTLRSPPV
T1 sequence (P04626 720-987 limits assumed): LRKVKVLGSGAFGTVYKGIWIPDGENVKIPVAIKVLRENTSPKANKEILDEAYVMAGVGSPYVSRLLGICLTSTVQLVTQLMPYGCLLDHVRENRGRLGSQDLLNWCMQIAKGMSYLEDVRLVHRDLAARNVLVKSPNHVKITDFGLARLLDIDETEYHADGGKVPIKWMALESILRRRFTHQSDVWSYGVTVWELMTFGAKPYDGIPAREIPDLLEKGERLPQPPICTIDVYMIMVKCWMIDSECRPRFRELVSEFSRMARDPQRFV

Structure (SMILES)	IC50 (HER2 Kinase) [µM]	IC50 (FLK-1 receptor) [µM]	IC50 (EGF Receptor) [µM]	also measured
O=C1Nc2ccccc2C1=Cc1ccc(Br)cc1 [SU4942, 3-(4-Bromobenzylidenyl)-2-indolinone]	–	–	–	EpH4-VEGF % inhibition @ mg/kg (EpH4-VEGF; @ 25 mg/kg): 47% @ 25; EpH4-VEGF % inhibition @ mg/kg (EpH4-VEGF; @ 50 mg/kg): 46% @ 50; IC50 (HUV-EC-C cells [1]): 4.6 µM
CN1C(=O)C(=Cc2ccc(Br)cc2)c2ccccc21 [SU4956, 3-(4-Bromobenzylidenyl)-1-methyl-2-indolinone]	22.5	–	–	–
O=C1Nc2ccccc2C1=Cc1ccc(N2CCCCC2)cc1 [SU5450, 3-[4-(Piperidin-1-yl)benzylidenyl]-2-indolinone]	92.6	4.5	–	–
COc1ccc(C=C2C(=O)Nc3ccccc32)c(Cl)c1 [SU5480, 3-[2-Chloro-4-methoxybenzylidenyl]-2-indolinone]	–	5.3	39.6	–
CN1C(=O)C(=Cc2ccc(N3CCOCC3)cc2)c2ccccc21 [SU4982, 1-Methyl-3-[4-(morpholin-4-yl)benzylidenyl]-2-indolinone]	39.4	21.6	–	–
O=CN1CCN(c2ccc(C=C3C(=O)Nc4ccccc43)cc2)CC1 [SU4984, 3-[4-(4-Formylpiperazin-1-yl)benzylidenyl]-2-indolinone]	90.2	1.6	–	IC50 (HUV-EC-C cells [2]): 0.8 µM; IC50 [3]: 22.2 µM; IC50 (PDGFR): 5.8 µM; IC50 (HUV-EC-C cells [1]): 25.8 µM
COc1ccccc1C=C1C(=O)Nc2ccccc21 [SU5214, 3-(2-Methoxybenzylidenyl)-2-indolinone]	–	14.8	36.7	–
CCc1ccc(C=C2C(=O)Nc3ccccc32)s1 [SU5451, 3-[(2-Ethylthien-5-yl)methylene]-2-indolinone]	–	3.4	44	–
